Test results from patent US11981669B2, “1,7-naphthyridine derivative and preparation method and use therefor” (CSPC ZHONGQI PHARMACEUTICAL TECHNOLOGY (SHIJIAZHUANG) CO., …, priority 2018, dated 2024).
Marks after values point to notes of the source that are not given here.

Key:
PHD2 = PHD2 (Homo sapiens (Human), UniProt Q9GZT9); experiment: PHD enzyme assay (Eu-VBC TR-fluorescence); type: biochemical
Method: VHL/elongin B/elongin C were constructed, expressed and purified, and VHL was labeled. PHD1, PHD2 and PHD3 were constructed, expressed and purified. VBC protein was labeled with DELFIA Eu-Labeling Kit. A NeutrAvidin 96-well plate was blocked after the addition of 200 μL Blocker Casein to each well, followed by incubation for 30 min. Each well was washed 3 times by adding 200 μL of washing buffer each time. […] Each well was washed 3 times by adding 200 μL of washing buffer each time. A 1 mM Biotin solution was prepared with Blocker Casein, and 100 μL of the solution was added to each well, followed by incubation for 30 min. Each well was washed 3 times by adding 200 μL of washing buffer each time. A 20× compound solution was prepared with PHD reaction buffer, with the final concentration of DMSO being 1%. […] After mixing homogeneously, the wells were incubated for 60 min. Each well was washed 3 times by adding 200 μL of washing buffer each time A 1 ng/μL Eu-VBC solution was prepared with Eu-VBC binding buffer, and 100 μL of the solution was added to each well, followed by incubation for 60 min. Each well was washed 6 times by adding 200 μL DELFIA Wash Concentrate each time. 100 μL DELFIA Enhancement Solution was added to each well. […] The flurescence of the sample wells was recorded as FLUsample, the flurescence of the full active wells was recorded as FLU100%, and the flurescence of the blank well was recorded as FLU0%.

HIF-1α = experiment: Expression of HIF-1α protein in Hep3B cells (western blot, grayscale analysis); type: cell-based, Human; details: for fold induction at 30 µM: Homo sapiens, 2 h, compound at 30 μM, 10 μM and 3 μM, read-out: HIF-1α level of the compound of the present disclosure/HIF-1α level of blank control
Method: A test compound was dissolved in dimethyl sulfoxide into a 100 mM stock solution, and then was diluted with 0.5% FBS-containing DMEM medium into 30 μM, 10 μM and 3 μM for later use. Human liver cancer cells Hep3B were seeded in a six-well plate at a density of 2.25*10^5 cells/well, 2 mL per well. After cultivation overnight, the cells were treated with compounds at different concentrations for 2 h. The proteins were extracted for western blot and further grayscale analysis.

[1] = test system: rats with residual kidney; experiment: SD rat residual kidney experiment; type: in vivo, SD rats; set-up: Hematocrit / Alanine aminotransferase / Glutamic-oxalacetic transaminase: unit not given here; details: for Red blood cells / Alanine aminotransferase / Glutamic-oxalacetic transaminase / Hematocrit / Hemoglobin / Hepcidin: three times each week, 15 times, x ± sd; for Red blood cells: blood 24 hours after last administration; for Effect on glutamic-oxalacetic transaminase / Effect on liver glutamic-pyruvic aminotransferase: compared with the blank control group
Method: 79 SD rats were subjected to residual kidney surgery after anesthesia (left kidney was resected, one third of the right kidney was left, and the resected kidney part was weighed to confirm the surgical error). After 4 weeks, 45 surviving rats were subjected to blood cell dection and then assigned according to the HCT value 37 rats in good condition were selected and divided into the following groups: Link-118 (5, 10 mg/kg), Link-121 (5, 10 mg/kg), and FG-4592 (10 mg/kg), 6 rats in each treatment group, and 7 in the model group. 4 rats were assigned to the blank control group. The rats were administered three times each week (administered on Monday, Wednesday, and Friday), for 15 times, and blood was taken 24 hours after the last administration (tested by blood routine, blood biochemistry, hepcidin kit).

reticulocytes = experiment: Effect on reticulocytes of normal mice; type: in vivo, Balb/c mice; set-up: Reticulocytes (RETIC), average: unit not given here; details: 10 mg/kg p.o., once; 72 h after administration
Method: 72 Balb/c mice, male, were divided into 12 groups, 6 mice in each treatment group. In the positive drug control groups: the mice in the FG-4592 treatment groups were orally administered once, at two doses of 10 mg/kg and 50 mg/kg, and the mice in the rhEPO treatment group was intraperitoneaily injected once, at a dose of 100 IU/kg. The compounds of the present disclosure were all orally administered once at a dose of 10 mg/kg. 72 h after the administration, blood was collected from the orbit of all animals, and subjected to EDTA-K2 anticoagulation. Then reticulocytes (RETIC) were counted with an automatic blood cell analyzer.

Sequence of PHD2 (Q9GZT9 whole entry): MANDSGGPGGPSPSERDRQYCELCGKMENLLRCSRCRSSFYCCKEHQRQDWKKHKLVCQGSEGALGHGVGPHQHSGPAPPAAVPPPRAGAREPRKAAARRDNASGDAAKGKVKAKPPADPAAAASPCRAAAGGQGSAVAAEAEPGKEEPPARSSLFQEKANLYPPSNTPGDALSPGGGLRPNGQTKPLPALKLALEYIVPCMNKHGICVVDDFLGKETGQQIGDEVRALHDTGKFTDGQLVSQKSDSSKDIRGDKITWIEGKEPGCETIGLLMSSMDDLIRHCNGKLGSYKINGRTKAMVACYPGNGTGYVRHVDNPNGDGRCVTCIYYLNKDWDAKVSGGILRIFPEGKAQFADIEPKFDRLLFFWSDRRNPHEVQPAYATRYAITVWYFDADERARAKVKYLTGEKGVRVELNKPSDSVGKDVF

Row | Effect on PHD2 compared with compounds of Comparative Examples 1-3 (PHD2) | IC50 (PHD2) [nM] | Alanine aminotransferase ([1]; 5 mg/kg) | Glutamic-oxalacetic transaminase ([1]; 5 mg/kg) | Alanine aminotransferase ([1]; 10 mg/kg) | Glutamic-oxalacetic transaminase ([1]; 10 mg/kg) | Effect on glutamic-oxalacetic transaminase [1] | Effect on liver glutamic-pyruvic aminotransferase [1] | Compound | HIF-1α protein expression compared with blank control (HIF-1α) | fold induction at 30 µM (HIF-1α) | Red blood cells ([1]; 5 mg/kg) | Hematocrit ([1]; 5 mg/kg) | Hemoglobin ([1]; 5 mg/kg) [g/L] | Hepcidin ([1]; 5 mg/kg) [ng/mL] | Red blood cells ([1]; 10 mg/kg) | Hematocrit ([1]; 10 mg/kg) | Hemoglobin ([1]; 10 mg/kg) [g/L] | Hepcidin ([1]; 10 mg/kg) [ng/mL] | Effect on HCT in rats with residual kidney ([1]; compared with the model group) | Effect on HGB in rats with residual kidney ([1]; compared with the model group) | other results
1 | better effect | 207 | 37.83 ± 1.60 | 116.50 ± 14.43 | 35.50 ± 6.28 | 113.67 ± 2123 | no significant effect | no significant effect | O=C(O)CNC(=O)c1nc(Cl)c2nc(Oc3ccccc3)ccc2c1O [Link-118, 2-(2-phenoxy-5-hydroxy-8-chloro-1,7-naphthyridine-6-formamido) Acetic Acid] | higher than that of the blank control | > 10 | 8.05 ± 0.46** 10^12/L | 45.88 ± 2.87 | 164 ± 10.99 | 2.5808 ± 1.0573 | 9.61 ± 1.06** 10^12/L | 57.2 ± 6.67 | 203.83 ± 22.83 | 2.4472 ± 0.513 | significantly increase | significantly increase | Promoting effect on HIF-1α expression compared with FG4592 (HIF-1α): stronger than that of the positive control drug FG4592; Effect on RBC in rats with residual kidney ([1]; compared with the model group): significantly increase; Effect on hepcidin in rats with residual kidney ([1]; compared with the model group): significantly inhibit; Efficacy compared with FG-4592 at the same dose ([1]; rats with residual kidney): better than that of FG-4592; Reticulocytes (RETIC), average (reticulocytes): 8.62
2 | better effect | 353 | 56.40 ± 25.89 | 130.80 ± 3126 | 47.5 ± 7.23 | 12125 ± 16.11 | no significant effect | no significant effect | O=C(O)CNC(=O)c1nc(Br)c2nc(Oc3ccccc3)ccc2c1O [Link-121, 2-(2-phenoxy-5-hydroxy-8-bromo-1,7-naphthyridine-6-formamido) Acetic Acid] | higher than that of the blank control | 4.5 to 8.5 | 7.68 ± 0.46 10^12/L | 43 ± 2.26 | 150.60 ± 8.62 | 2.8289 ± 0.7597 | 8.12 ± 1.11 10^12/L | 46.86 ± 629 | 163.40 ± 24.44 | 2.5494 ± 1.3532 | significantly increase | significantly increase | Effect on hepcidin in rats with residual kidney ([1]; compared with the model group): reduced; Reticulocytes (RETIC), average (reticulocytes): 7.28
